Data from PMC7822874, “Chemoprotective antimalarials identified through quantitative high-throughput screening of Plasmodium blood and liver stage parasites” (Scientific Reports, 2021).
Read-outs that look alike come from different tables or passages of the source. Peptide text beside a SMILES is read from it. * marks the point of attachment. Boc = CC(C)(C)OC(=O)*; OBn = c1ccc(CO*)cc1

Tested on: Plasmodium falciparum Dd2 asexual blood stage parasites
Assay: microbe, parasite or virus in culture
Design: species or system Plasmodium falciparum Dd2 in human erythrocytes; single determination (one 11-point concentration-response curve)
Conditions: Plasmodium falciparum, DD2, Erythrocyte, 72 h

SMILES	AC50 (read-out: AC50) [µM]	AC50 [µM]
Cc1nc2sc(C(=O)Nc3ccc(F)cc3)c(N)c2c(-c2ccc(Br)cc2)c1C(=O)Nc1ccc(Cl)cc1 [NCGC00105115-01]	8.41	–
Cc1cccc(N2CCN(C(=O)CCc3nnc4n(CC(C)C)c(=O)c5ccccc5n34)CC2)c1C [NCGC00112784-01]	3.35	–
Nc1nonc1-n1nnc(C(=O)N/N=C/c2ccc(F)cc2)c1-c1ccc2c(c1)OCO2 [MLS001142639-01]	0.335	–
COC1C(=O)N(c2cccc(F)c2)C12CCNCC2 (centres unmarked) [NCGC00463379-01]	10.6	–
COc1ccc(CNC(=O)C2CCN(c3nc(-c4ccccc4)nc4c3CCC4)CC2)cc1 [MLS001120192-01]	7.5	–
O=C(Nc1ccc(Cl)cc1)c1cc2c(-c3ccccc3)nn(-c3ccccc3)c2s1 [NCGC00102088-01]	2.37	–
O=C(NC1CCCCC1)C(c1cccs1)N(CCCN1CCOCC1)C(=O)c1ccc(-c2ccccc2)[nH]1 (centres unmarked) [MLS000711767-01]	4.73	–
Cc1cc(Nc2cccc(C(F)(F)F)c2)nc2ccc(NC(=O)c3cncc(Br)c3)cc12 [NCGC00124348-01]	2.37	–
Cc1nc(-c2ccco2)cc([C@H]2CN3CC[C@H]2C[C@@H]3CNCc2ccccc2)n1 [NCGC00401513-01]	4.33	–
CC(C)(Oc1nn(Cc2cccc(Cl)c2)c2ccccc12)C(=O)NCCN1CCOCC1 [NCGC00419620-01]	5.31	–
O=C1CC2(CCN([S+](=O)([O-])c3cccc(C(F)(F)F)c3)CC2)Oc2ccccc2N1c1ccccc1 [NCGC00478390-01]	6.68	–
COc1ccc(NC(=O)c2c(C)oc3ccc(O)c(CN4CCN(Cc5ccccc5)CC4)c23)cc1 [NCGC00115648-01]	2.66	–
COc1cc(C2Nc3ccc4ccccc4c3C3=C2C(=O)CC(C)(C)C3)ccc1OC(C)C(=O)O (centres unmarked) [MLS001197433-01]	6.68	–
Cc1cc(C(=O)Nc2cnn(Cc3ccc(Cl)cc3Cl)c2)no1 [MLS000087313-01]	9.44	–
CCC1=C(C(=O)OC)C(c2cccc(F)c2)N2C(CC(=O)NCCc3cccs3)=CSC2=N1 (centres unmarked) [NCGC00473313-01]	9.44	–
CCCOc1ccc(Oc2nc(-c3ccncc3)nc3ccccc23)cc1 [MLS000769540-01]	4.22	–
CN1N=C(C(=O)N2CCc3c([nH]c4ccccc34)C2c2ccccc2Cl)CCC1=O (centres unmarked) [MLS000733406-01]	5.31	–
Cc1ccc2nc(-c3ccccc3O)c(Nc3ccccc3C)n2c1 [NCGC00106804-01]	2.37	–
CC(C)CC(NC(=O)C(NC(=O)OC(C)(C)C)C(C)C)C(=O)NC(CCC(=O)OCc1ccccc1)C(N)=O (stereo not drawn) [MLS001304946-01] (Boc-Val-Leu-Glu(OBn)-NH2; configuration not given here)	8.41	–

SMILES	AC50 (read-out: AC50) [µM]	AC50 [µM]
COc1ccc(-c2nc(Cn3c(SCc4ccccc4F)nc4ccncc43)c(C)o2)cc1OC [NCGC00113862-01]	8.41	–
CC(C)=NOC(=O)c1c(C)noc1-c1snnc1C [MLS000834920-01]	6.68	–
CCCCCC(O)(c1ccc(OC)cc1)C(CN1CCOCC1)c1ccccc1 (centres unmarked) [MLS001198946-01]	2.11	–
Cc1cc(C(=O)CN2C(=O)NC(C)(c3cccc(Br)c3)C2=O)c(C)n1Cc1ccco1 (centres unmarked) [MLS000055137-01]	13.3	–
Cc1cccc2cc(CN(Cc3ccco3)C(c3nnnn3CCc3ccccc3)C(C)C)c(O)nc12 (centres unmarked) [MLS000072528-01]	10.6	–
CCC(=O)C1=C(c2ccccc2)N(C(=O)CC)n2c(nnc2-c2ccccc2)S1 [NCGC00137198-01]	5.96	–
CCN(CC)c1cc(C)c2cc(NC(=O)/C=C/c3cc(OC)c(OC)c(OC)c3)ccc2n1 [NCGC00104274-01]	4.73	–
NC(=O)C1CCN(CC(=O)Nc2cccc(C(=O)Nc3cccc(C(F)(F)F)c3)c2)CC1 [MLS000334956-01]	6.68	–
CCN(CC)CCNC(=O)c1ccc(NC(=O)c2cccc(S(=O)(=O)N3CCc4ccccc43)c2)cc1 [MLS002169644-01]	5.31	–
O=c1nc(C2CCN(S(=O)(=O)/C=C/c3ccccc3)CC2)[nH]c2c1nnn2Cc1ccc(F)cc1 [MLS001229566-01]	13.3	–
CCOC(=O)c1cc(-c2ccc(OC)cc2)n(CCC(=O)Nc2cccc(C(C)=O)c2)c1C [NCGC00140940-01]	0.211	–
COc1ccc(OC)c(CN2CC(Oc3ccccc3C(=O)NCc3ccccc3)C2)c1 [NCGC00458087-01]	13.3	–
Oc1ccc(Cl)cc1CN1CCN(Cc2ccccc2)CC1 [MLS000530315-01]	0.944	–
CCOc1ccc(NC(=O)Nc2cc(OCC(F)(F)F)cc(OCC(F)(F)F)c2)cc1 [MLS000391697-01]	13.3	–
COc1ccc(-c2cc(-c3cccc(OC)c3OC)cn3cncc23)cc1 [NCGC00412191-01]	6.85	–
Cc1ccc(C2=CC(c3ccc(Cl)cc3)n3nc(-c4ccc(C)cc4)nc3N2)cc1 (centres unmarked) [NCGC00105128-01]	1.68	–
O=C(c1ccccc1OCC1CCCN(Cc2ccncc2F)C1)N1CCCCC1 (centres unmarked) [NCGC00427046-01]	10.6	–
Cc1nc(-c2ccc(F)cc2)n(CC(=O)Nc2cccc(Cl)c2)c(=O)c1CCO [NCGC00470975-01]	15	–
CC(C)N1CCC2(CC1)CN(C(=O)Cc1cccc(F)c1)Cc1ccccc1O2 [NCGC00456475-01]	15	–

SMILES	AC50 (read-out: AC50) [µM]	AC50 [µM]
Cc1cnc(C2CCC2)n1C1CCCN(C(=O)CCCc2ccccc2)C1 (centres unmarked) [NCGC00464236-01]	15	–
Cc1ccc(-c2nc(NC(=O)c3cc(C(C)(C)C)nn3C)sc2C)cc1Cl [MLS000860650-01]	10.6	–
CC(=O)C1=C(c2ccc(Cl)cc2)N(C(C)=O)n2c(nnc2C2CCCCC2)S1 [NCGC00137192-01]	4.73	–
O=C(N/N=C/c1ccc(OCc2ccccc2)cc1)c1ccco1 [MLS000769970-01]	13.3	–
CCOC(=O)c1[nH]c(Cc2[nH]c(C(=O)OCC)c(C)c2CCC(=O)OC)c(CCC(=O)OC)c1C [MLS000111116-01]	5.31	–
Cc1ccccc1Nc1nc(-c2cccnc2)cs1 [MLS001206645-01]	9.44	–
Cc1ccc(C(=O)Nc2cccc(NC(=O)c3ccc(C)c([N+](=O)[O-])c3)n2)cc1[N+](=O)[O-] [MLS001195117-01]	–	15
CCOC(=O)C1=C(C)NC(=O)CC1c1cc(OC)c(OC)cc1Br (centres unmarked) [MLS000723492-01]	5.31	–
Oc1ccc(CN2CCCCC2)nc1-c1ccccc1 [MLS000031925-01]	0.531	–
Cc1ccc(-c2cc(C(F)F)n3ncc(C(=O)N4CCCCC4c4cccnc4)c3n2)cc1 (centres unmarked) [MLS000665275-01]	2.37	–
Cc1cc(OC(C)C(=O)NCCc2c[nH]c3ccccc23)c2c(C)cc(=O)oc2c1 (centres unmarked) [MLS001158613-01]	2.66	–
Cc1cc(C)c(/C=C/c2onc(C)c2[S+](=O)([O-])N2CCC(C(=O)Nc3ccc(Cl)c(C(F)(F)F)c3)CC2)c(C)c1 [NCGC00132732-01]	10.6	–
CCc1nn2cc(C(=O)c3cc(C)ccc3O)cnc2c1-c1ccc(F)cc1 [MLS000548735-01]	9.44	–
O=C(Nc1ccc2c(N3CCCC3)ncnc2c1)c1ccc(Br)cc1 [NCGC00425477-01]	4.73	–
CCCC1=[N+](CC(=O)c2ccccc2)CCn2c(C)ccc21 [MLS000551171-01]	15	–
Cc1onc(-c2ccc(Cl)cc2)c1-c1ccnn1S(=O)(=O)c1cccc(C(F)(F)F)c1 [MLS001111123-01]	4.73	–
Nc1nonc1-n1nnc(C(=O)N/N=C/c2ccc(Cl)cc2)c1-c1ccc2c(c1)OCO2 [MLS001142698-01]	0.376	–
Cc1oc(-c2ccc(Cl)cc2)nc1Cn1c(=O)cc(-c2ccccc2)c2c(C)nn(C)c21 [NCGC00130157-01]	9.44	–
